The target in the experiment is SYK (SYK(2-635)) (Homo sapiens (Human), UniProt P43405). In words: SYK enzyme assay (chip based microfluidic mobility shift assay). The class given is biochemical. To be noted: SYK kinase, 4 μM ATP/peptide solution, 30° C., 60 minutes, Caliper mobility shift. On the procedure: A number of compounds of the present invention were assayed in a chip based microfluidic mobility shift assay. All assays were performed in 384 well microtiter plates. Each assay plate contained 8-point serial dilutions for 40 test compounds, as well as four 8-point serial dilutions of staurosporine as reference compound, plus 16 high- and 16 low controls. Liquid handling and incubation steps were done on a Thermo CatX workstation equipped with a Innovadyne Nanodrop Express. Between pipetting steps, tips were cleaned in wash cycles using wash buffer. The assay plates were prepared by addition of 50 nl per well of compound solution in 90% DMSO. The kinase reactions were started by stepwise addition of 4.5 μl per well of peptide/ATP-solution (50 mM HEPES, pH 7.5, 1 mM DTT, 0.02% Tween20, 0.02% BSA, 0.6% DMSO, 10 mM beta-glycerophosphate, and 10 μM sodium orthovanadate, 1 mM MgCl2, 3 mM MnCl2, 4 μM ATP, 4 μM peptide (5-Fluo-Ahx-GAPDYENLQELNKK-Amid) and 4.5 μl per well of enzyme solution (50 mM HEPES, pH 7.5, 1 mM DTT, 0.02% Tween20, 0.02% BSA, 0.6% DMSO, 10 mM beta-glycerophosphate, and 10 μM sodium orthovanadate, 1 mM MgCl2, 3 mM MnCl2, 4 nM SYK (SYK(2-635), produced in-house from insect cells). Kinase reactions were incubated at 30° C. for 60 minutes and subsequently terminated by addition of 16 μl per well of stop solution (100 mM HEPES pH 7.5, 5% DMSO, 0.1% Caliper coating reagent, 10 mM EDTA, and 0.015% Brij35). Plates with terminated kinase reactions were transferred to the Caliper LC3000 workstations for reading. Phosphorylated and unphosphorylated peptides were separated using the Caliper microfluidic mobility shift technology. Briefly, samples from terminated kinase reactions were applied to the chip. Analytes are transported through the chip by constant buffer flow and the migration of the substrate peptide is monitored by the fluorescence signal of its label. Phosphorylated peptide (product) and unphosphorylated peptide (substrate) are separated in an electric field by their charge/mass ratio. Kinase activities were calculated from the amounts of formed phospho-peptide. IC50 values were determined from percent inhibition values at different compound concentrations by non-linear regression analysis.
Test compounds were dissolved in DMSO (10 mM) and transferred into 1.4 mL flat bottom or V-shaped Matrix tubes carrying a unique 2D matrix. The stock solutions were stored at […] if not used immediately. For the test procedure the vials were defrosted and identified by a scanner whereby a working sheet was generated that guided the subsequent working steps.
Compound dilutions were made in 96 well plates. This format enabled the assay of maximally 40 individual test compounds at 8 concentrations (single points) including 4 reference compounds. The dilution protocol included the production of “pre-dilution plates”, “master plates” and “assay plates”.
Pre-dilution plates: 96 polypropylene well plates were used as pre-dilution plates. A total of 4 pre-dilution plates were prepared including 10 test compounds each on the plate positions A1-A10, one standard compound at A11 and one DMSO control at A12. All dilution steps were done on a HamiltonSTAR robot.
Master plates: 30 μL of individual compound dilutions including standard compound and controls of the 4 “pre-dilution plates” were transferred into a 384 “master plate” including the following concentrations 1′810, 362, 72.5, […], 14.5, 2.9, 0.58 and 0.12 μM, respectively in 90% of DMSO.
Assay plates: Identical “assay plates” were then prepared by pipetting 50 nL each of compound dilutions of the “master plates” into 384-well “assay plates” by means of a HummingBird 384-channel dispenser. These plates were used directly for the assay which was performed in a total volume of 9.05 μL. This led to a final compound concentration of 10, 2.0, 0.4, 0.08, 0.016, 0.0032, 0.00064 and 0.000128 μM and a final DMSO concentration of 0.5% in the assay.

Usually IC50 stands for the midpoint of a concentration-inhibition curve. `N[C@H]1CCCC[C@H]1Nc1cc2cn[nH]c(=O)c2c(Nc2ccc3nccnc3c2)n1` [Example 2.18, 7-((1R,2S)-2-Amino-cyclohexylamino)-5-(quinoxalin-6-ylamino)-3H-pyrido[3,4-d]pyridazin-4-one]: the IC50 stood at 26 nM.

For the origin of these results see patent US9315500B2, “Bicyclic heteroaryl cycloalkyldiamine derivatives” (NOVARTIS AG, priority 2012, dated 2016).
